Legend:
VHL Elongin B/C complex = VHL Elongin B/C complex (Homo sapiens (Human), UniProt P40337); test: Fluorescence Polarization (FP) VHL Binding Assay; conditions: VHL binding, FP assay; geometric mean where more than one measurement
Protocol: The binding of test compounds to the VHL Elongin B/C complex was measured using a fluorescence polarization tracer competition assay. The VHL/Elongin B/C protein complex used in the assay was generated as follows. The coding region for amino acids E55-D213 of human VHL with N-terminal His6 tag with a TEV-protease cleavage site was co-expressed with Elongin B (residues M1-Q118) and Elongin C (Residues M17-C112) in E. coli. […] The purified VHL/Elongin B/C complex was dialyzed into formulation buffer: 20 mM Bis-Tris pH7.0, 150 mM NaCl, 1 mM DTT. A VHL fluorescence polarization probe (prepared in Example 91), consisted of a VHL ligand coupled to carboxytetramethylrhodamine (TAMRA); […] Compounds were prepared as a serial dilution in DMSO at a concentration 25-fold higher than the final desired concentration and acoustically dispensed (400 nl) into a ProxiPlate-384 Plus F, Black 384-shallow well Microplate (Part Number 6008260). DMSO was dispensed into wells designated for “VHL control” (without compound) wells. The “Assay Buffer” consisted of 50 mM Tris pH 8.0, 120 mM NaCl, 0.005% Nonidet P-40, and 1% DMSO (v/v). Assay Buffer containing […] VHL Elongin B/C complex was prepared and 5 μl dispensed using a BioRapTR (Beckman Coulter) into each well of the assay plate. Assay Buffer was also dispensed into “no VHL control” wells using the same method. A “pre-assay” fluorescence measurement was made using an Infinite® M1000 (Tecan) plate reader (Excitation 530 nm, Emission 574 nm, Bandwidth 10 nm). Assay Buffer containing 3.34 nM of the VHL FP probe was prepared in Assay Buffer and 5 μl dispensed into each well of the assay plate using a BioRapTR (Beckman Coulter). The final VHL/Elongin B/C protein concentration is 2.64 nM and the final probe concentration is 1.67 nM. Assay plates were briefly centrifuged and incubated for 1 hour at room temperature. “Post-assay” fluorescence polarization measurements were made as described for the “pre-assay” fluorescence measurement. Fluorescence polarization was calculated for each sample; taking into account the “pre-assay” fluorescence measurements and subtracting the fluorescence signal of the compound/VHL only (“pre-assay”) measurements from the “post-assay” fluorescence polarization measurements, for each plane of polarization. The data were analyzed using Genedata Screener software and normalized to the “no VHL control” and “VHL control” (without compound). IC50 values were calculated using a four parameter curve fit (Robust method).

[1] = target: VHL co-expressed with Elongins B and C (Homo sapiens (Human), UniProt P40337); test: Surface Plasmon Resonance Assay; type: binding; conditions: SPR measured VHL affinity; geometric mean where more than one measurement
Protocol: Using a Biacore T200, […] tagged VHL co-expressed with Elongins B and C were immobilized to a Biacore SA chip in running buffer without DMSO. Compounds were tested individually at varying concentrations in running buffer (50 mM HEPES pH 7.2, 150 mM NaCl, 0.5 mM TCEP, 0.001% Tween 20, 0.2% PEG3350, 2% DMSO) at 20° C. Sensorgrams were run in order from low to high concentration using a flow rate of 80 μL/min. Association and disassociation times were varied depending on the estimated potency of the compound tested. […] Galdeano et al, J. Med. Chem. 2014, 57, 8657-8663, herein incorporated by reference) which retained greater than 75% of the activity over the course of the run. Analysis of the binding curves and determination of the kinetic parameters were done using evaluation software (Version 2.0, Biacore).

[2] = target: NanoLuc VHL fusion protein (Homo sapiens (Human), UniProt P40337); test: VHL HEK-293 BRET Assay (NanoBRET Target Engagement); type: cell-based; conditions: geometric mean where more than one measurement
Protocol: The VHL NanoBRET™ Target Engagement Assay analyzes the apparent affinity of test compounds for VHL in cells by competitive displacement of a VHL NanoBRET™ tracer reversibly bound to a NanoLuc® VHL fusion protein stably expressed in the cells. Test compounds were transferred to the assay plate (384 Well White Non-Binding Corning Assay Plates (Corning-3574)) using an Echo 555 Liquid Handler (Labcyte) in 2.5 nL increments and, as appropriate, intermediate stock concentrations of compounds, in order to prepare a titration series. 50 nL of control compound (10 mM; parental unlabeled VHL antagonist; see structure below) and 50 nL of DMSO (negative control) were dispensed into the appropriate control wells. DMSO was backfilled to a final volume of 50 nL as required. 50 nl per well of 1 mM VHL NanoBRET™ Tracer in DMSO (NanoBRET™ Tracer-PEG2-590 (see structure below)) was transferred into each well using an Echo 555 (ultimately yielding a final concentration of 1 uM). HEK 293 RT VHL-NanoLuc® stable cells were cultured in DMEM High Glucose with Pyruvate, 10% fetal bovine serum, 2 mg/mL of Geneticin Selective Antibiotic (50 mg/ml) and 2 mM HEPES (1 M). Cells were seeded in Opti-MEM (Life Technologies-11058-021), 1.7×10^5 cells/mL, 40 μl per well into the assay plate, centrifuged at 500 rpm for 30 seconds and incubated for 2 hours. Max Signal control wells consisted of DMSO only treated wells. Minimum Signal control wells contained of 10 uM parental unlabeled VHL antagonist (control compound—see structure below). 3× Complete Substrate plus Inhibitor Solution was prepared in Opti-MEM (consists of a 1:166 dilution of NanoBRET™ Nano-Glo® Substrate plus a 1:500 dilution of Extracellular NanoLuc® Inhibitor in Opti-MEM), and 20 ul was dispensed into each well of the 384-well plate and centrifuged at 1000 rpm for 1 minute, then incubated for 2 minutes at room temperature. Background Signal control wells were prepared without tracer for background correction steps. Plates were read using a PerkinElmer Envision Reader (model 2104-0020) equipped with Luminescence option (Mirror: BRET2 Enh (PE Barcode 659), Emission Filter: Omega 610LP (Barcode 504), 2nd Emission Filter: Umbelliferone 460 (Barcode 207), Measurement height: 6.5 mm, Measurement time: 1 s). The raw BRET ratio values were calculated by dividing the acceptor emission value (610 nm) by the donor emission value (460 nm) for each sample. To correct for background, the BRET ratio in the absence of tracer (average of no-tracer control samples) was subtracted from the BRET ratio of each sample. Raw BRET units were converted to milliBRET units (mBU) by multiplying each raw BRET value by 1,000. The normalized NanoBRET™ signal was calculated relative to the Max Signal control wells (DMSO treated control wells) and the Minimum Signal control wells. Percentage inhibition was calculated relative to the Minimum Signal control and Maximum Signal control wells. IC50 values were derived by four parameter curve fitting using the Robust method.

NanoLuc VHL fusion protein, sequence (P40337 whole entry, looked up, the tested form may be a part): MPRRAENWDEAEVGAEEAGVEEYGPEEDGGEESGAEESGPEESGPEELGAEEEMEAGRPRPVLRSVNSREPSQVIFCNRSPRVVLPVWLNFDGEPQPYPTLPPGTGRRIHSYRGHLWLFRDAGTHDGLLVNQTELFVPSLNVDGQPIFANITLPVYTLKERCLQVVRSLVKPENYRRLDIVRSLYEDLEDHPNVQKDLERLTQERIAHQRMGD
NanoLuc VHL fusion protein, sequence (Q15370 whole entry partner, looked up, the tested form may be a part): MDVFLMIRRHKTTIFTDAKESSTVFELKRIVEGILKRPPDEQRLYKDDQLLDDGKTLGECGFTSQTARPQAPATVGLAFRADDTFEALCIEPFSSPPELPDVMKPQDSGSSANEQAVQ
NanoLuc VHL fusion protein, sequence (Q15369 whole entry partner, looked up, the tested form may be a part): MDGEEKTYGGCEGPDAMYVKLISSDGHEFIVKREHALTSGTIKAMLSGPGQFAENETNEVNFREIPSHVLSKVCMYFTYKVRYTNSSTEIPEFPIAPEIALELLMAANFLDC
VHL Elongin B/C complex, sequence (P40337 whole entry, looked up, the tested form may be a part): as the sequence (P40337 whole entry, looked up, the tested form may be a part) above
VHL Elongin B/C complex, sequence (Q15370 whole entry partner, looked up, the tested form may be a part): as the sequence (Q15370 whole entry partner, looked up, the tested form may be a part) above
VHL Elongin B/C complex, sequence (Q15369 whole entry partner, looked up, the tested form may be a part): as the sequence (Q15369 whole entry partner, looked up, the tested form may be a part) above
VHL co-expressed with Elongins B and C, sequence (P40337 whole entry, looked up): as the sequence (P40337 whole entry, looked up, the tested form may be a part) above
VHL co-expressed with Elongins B and C, sequence (Q15370 whole entry partner, looked up): as the sequence (Q15370 whole entry partner, looked up, the tested form may be a part) above
VHL co-expressed with Elongins B and C, sequence (Q15369 whole entry partner, looked up): as the sequence (Q15369 whole entry partner, looked up, the tested form may be a part) above

Cc1ncsc1-c1ccc([C@]2(C)NC(C3C[C@@H](O)CN3C(=O)C(c3cnn(C)c3)C(C)C)=NC2=O)cc1 (single isomer, unassigned) [Example 110.1]
IC50 (VHL Elongin B/C complex): 20.6 µM
Kd [1]: 7.42 µM
IC50 [2]: 28.1 µM

CC(=O)N1CCC[C@H]1C(=O)N1C[C@H](O)CC1C1=NC(=O)[C@](C)(c2ccc(-c3scnc3C)cc2)N1 (single isomer, unassigned) [Example 121.1]
IC50 (VHL Elongin B/C complex): 65.5 µM
Kd [1]: 29.2 µM
IC50 [2]: 100 µM

Cc1cc([C@H](C(=O)N2C[C@H](O)C[C@H]2C2=NO[C@@](c3ccccc3)(C(F)(F)F)N2)C(C)C)on1 (mixture of isomers) [Example 114.1, (2S)-1-((2S,4R)-4-Hydroxy-2-(5-phenyl-5-(trifluoromethyl)-4,5-dihydro-1,2,4-oxadiazol-3-yl)pyrrolidin-1-yl)-3-methyl-2-(3-methylisoxazol-5-yl)butan-1-one and (2R)-1-((2S,4R)-4-Hydroxy-2-(5-phenyl-5-(trifluoromethyl)-4,5-dihydro-1,2,4-oxadiazol-3-yl)pyrrolidin-1-yl)-3-methyl-2-(3-methylisoxazol-5-yl)butan-1-one]
IC50 (VHL Elongin B/C complex): 400 µM
Kd [1]: 150 µM
IC50 [2]: 100 µM

Cc1ncsc1-c1ccc([C@]2(C)NC(C3C[C@@H](O)CN3C(=O)[C@@H]3CCCCN3S(C)(=O)=O)=NC2=O)cc1 (single isomer, unassigned) [Example 122.2]
IC50 (VHL Elongin B/C complex): 16.7 µM
Kd [1]: 6.83 µM
IC50 [2]: 39 µM

Cc1cc([C@H](C(=O)N2C[C@H](O)C[C@H]2C2=NOC(C)(c3ccccc3)N2)C(C)C)on1 (single isomer, unassigned) [Example 128.4]
IC50 (VHL Elongin B/C complex): 17.3 µM
Kd [1]: 7.5 µM
IC50 [2]: 24.5 µM

Cc1cc(C(C(=O)N2C[C@H](O)C[C@H]2C2=NN(c3ccccc3)C(C)(C)N2)C(C)C)on1 (single isomer, unassigned) [Example 135.1]
IC50 (VHL Elongin B/C complex): ≥ 400 µM
Kd [1]: ≥ 150 µM
IC50 [2]: 100 µM

Cc1ncsc1-c1ccc([C@]2(C)NC(C3C[C@@H](O)CN3C(=O)C(c3cn(C)nn3)C(C)C)=NC2=O)cc1 (single isomer, unassigned) [Example 118.1]
IC50 (VHL Elongin B/C complex): 157 µM
Kd [1]: 61.5 µM
IC50 [2]: 100 µM

Cc1cc([C@@H](C(=O)N2C[C@H](O)C[C@H]2C2=NOC(C)(c3ccc(Br)cc3)N2)C(C)C)on1 (mixture of isomers) [Example 113.1, (2S)-1-((2S,4R)-2-(5-(4-Bromophenyl)-5-methyl-4,5-dihydro-1,2,4-oxadiazol-3-yl)-4-hydroxypyrrolidin-1-yl)-3-methyl-2-(3-methylisoxazol-5-yl)butan-1-one and (2R)-1-((2S,4R)-2-(5-(4-Bromophenyl)-5-methyl-4,5-dihydro-1,2,4-oxadiazol-3-yl)-4-hydroxypyrrolidin-1-yl)-3-methyl-2-(3-methylisoxazol-5-yl)butan-1-one]
IC50 (VHL Elongin B/C complex): 70.6 µM
Kd [1]: 24.1 µM
IC50 [2]: 96.9 µM

Cc1cc([C@@H](C(=O)N2C[C@H](O)C[C@H]2C2=NOC3(CCc4ccccc43)N2)C(C)C)on1 (single isomer, unassigned) [Example 130.1]
IC50 (VHL Elongin B/C complex): 96.1 µM
Kd [1]: 83 µM
IC50 [2]: 100 µM

Cc1ncsc1-c1ccc([C@]2(C)NC(C3C[C@@H](O)CN3C(=O)[C@H](C(C)C)N3Cc4ccccc4C3=O)=NC2=O)cc1 (single isomer, unassigned) [Example 123.2]
IC50 (VHL Elongin B/C complex): 4.68 µM
Kd [1]: 3.98 µM
IC50 [2]: 5.48 µM

Cc1cc([C@@H](C(=O)N2C[C@H](O)C[C@H]2C2=NOC3(CCc4ccccc43)N2)C(C)C)on1 (single isomer, unassigned) [Example 130.2]
IC50 (VHL Elongin B/C complex): 362 µM
Kd [1]: 121 µM
IC50 [2]: 100 µM

Cc1ncsc1-c1ccc([C@]2(C)NC(C3C[C@@H](O)CN3C(=O)[C@@H](NC(=O)C3(C#N)CC3)C(C)(C)C)=NC2=O)cc1 (single isomer, unassigned) [Example 111.2]
IC50 (VHL Elongin B/C complex): 4.97 µM
Kd [1]: 1.86 µM
IC50 [2]: 5.11 µM

Cc1cc([C@H](C(=O)N2C[C@H](O)C[C@H]2C2=NOC3(CCCC3)N2)C(C)C)on1 [Example 127.2, (R)-1-((2S,4R)-4-hydroxy-2-(1-oxa-2,4-diazaspiro[4.4]non-2-en-3-yl)pyrrolidin-1-yl)-3-methyl-2-(3-methylisoxazol-5-yl)butan-1-one]
IC50 (VHL Elongin B/C complex): 50.8 µM
Kd [1]: 16.4 µM
IC50 [2]: 73.2 µM

Cc1cc([C@@H](C(=O)N2C[C@H](O)C[C@H]2C2=NOC3(CCCC3)N2)C(C)C)on1 [Example 127.1, (S)-1-((2S,4R)-4-hydroxy-2-(1-oxa-2,4-diazaspiro[4.4]non-2-en-3-yl)pyrrolidin-1-yl)-3-methyl-2-(3-methylisoxazol-5-yl)butan-1-one]
IC50 (VHL Elongin B/C complex): ≥ 400 µM
Kd [1]: ≥ 150 µM
IC50 [2]: 100 µM

Cc1cc([C@@H](C(=O)N2C[C@H](O)C[C@H]2C2=NOC(C)(c3ccc(-c4scnc4C)cc3)N2)C(C)C)on1 (single isomer, unassigned) [Example 129.2]
IC50 (VHL Elongin B/C complex): 58.4 µM
Kd [1]: 57 µM
IC50 [2]: 77.9 µM

Cc1cc([C@H](C(=O)N2C[C@H](O)C[C@H]2C2=NO[C@@](C)(c3ccc(Br)cc3)N2)C(C)C)on1 (mixture of isomers) [Example 113.2, (2S)-1-((2S,4R)-2-(5-(4-Bromophenyl)-5-methyl-4,5-dihydro-1,2,4-oxadiazol-3-yl)-4-hydroxypyrrolidin-1-yl)-3-methyl-2-(3-methylisoxazol-5-yl)butan-1-one and (2R)-1-((2S,4R)-2-(5-(4-Bromophenyl)-5-methyl-4,5-dihydro-1,2,4-oxadiazol-3-yl)-4-hydroxypyrrolidin-1-yl)-3-methyl-2-(3-methylisoxazol-5-yl)butan-1-one]
IC50 (VHL Elongin B/C complex): 6.3 µM
Kd [1]: 2.49 µM
IC50 [2]: 2.94 µM

From US11242344B2, “(4-hydroxypyrrolidin-2-yl)-heterocyclic compounds and methods of use thereof” (Genentech, Inc., priority 2017, dated 2022)
